Experiments:
Assay in all cases: relative viability (nuclei count vs DMSO), 5 days (fraction); higher = more cells survive
201T = tested on: 201T
Procedure, shortened: (§1)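 Values are medians from duplicate plates. Each reflects relative viability, defined as the nuclei count of treated wells over that of vehicle wells. Lung cancer cell lines in 1536-well plates were pin-tool dosed one day after seeding with one drug alone or with a fixed anchor-drug dose plus five library-drug doses (not always all listed) in √10 steps, then fixed, stained and imaged at 4× after 5 days.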

BEN = tested on: BEN
Procedure, shortened: as §1

EMC-BAC-2 = tested on: EMC-BAC-2
Procedure, shortened: as §1

HARA = tested on: HARA
Procedure, shortened: as §1

HCC-44 = tested on: HCC-44
Procedure, shortened: as §1

LCLC-103H = tested on: LCLC-103H
Procedure, shortened: as §1

LOU-NH91 = tested on: LOU-NH91
Procedure, shortened: as §1

NCI-H1395 = tested on: NCI-H1395
Procedure, shortened: as §1

NCI-H1666 = tested on: NCI-H1666
Procedure, shortened: as §1

NCI-H1993 = tested on: NCI-H1993
Procedure, shortened: as §1

NCI-H2009 = tested on: NCI-H2009
Procedure, shortened: as §1

NCI-H2023 = tested on: NCI-H2023
Procedure, shortened: as §1

NCI-H2087 = tested on: NCI-H2087
Procedure, shortened: as §1

NCI-H2126 = tested on: NCI-H2126
Procedure, shortened: as §1

NCI-H2347 = tested on: NCI-H2347
Procedure, shortened: as §1

NCI-H23 = tested on: NCI-H23
Procedure, shortened: as §1

NCI-H3122 = tested on: NCI-H3122
Procedure, shortened: as §1

NCI-H441 = tested on: NCI-H441
Procedure, shortened: as §1

NCI-H522 = tested on: NCI-H522
Procedure, shortened: as §1

NCI-H596 = tested on: NCI-H596
Procedure, shortened: as §1

NCI-H647 = tested on: NCI-H647
Procedure, shortened: as §1

NCI-H650 = tested on: NCI-H650
Procedure, shortened: as §1

NCI-H727 = tested on: NCI-H727
Procedure, shortened: as §1

NCI-H838 = tested on: NCI-H838
Procedure, shortened: as §1

Compound `COc1cc(N2CCC(C(N)=O)CC2)ccc1Nc1nc(N)c(Cl)c(Nc2ccccc2S(=O)(=O)C(C)C)n1` [HG-5-88-01] + CC(=O)Nc1cccc(-n2c(=O)n(C3CC3)c(=O)c3c(Nc4ccc(I)cc4F)n(C)c(=O)c(C)c32)c1 [Trametinib] (partner 0.02 µM) has a relative viability (201T; first compound 0.04 µM) of 0.697, a relative viability (201T; first compound 0.1265 µM) of 0.699 and a relative viability (201T; first compound 1.265 µM) of 0.694. For the same compound, the relative viability (201T; first compound 4 µM) was 0.782, the relative viability (BEN; first compound 0.04 µM) was 1.04 and the relative viability (BEN; first compound 0.1265 µM) was 1.12. It also gave a relative viability (BEN; first compound 0.4 µM) of 1.16, a relative viability (BEN; first compound 1.265 µM) of 0.76 and a relative viability (BEN; first compound 4 µM) of 1.06. It also gave a relative viability (EMC-BAC-2; first compound 0.04 µM) of 0.927, a relative viability (EMC-BAC-2; first compound 0.1265 µM) of 0.939 and a relative viability (EMC-BAC-2; first compound 0.4 µM) of 0.8. It also gave a relative viability (EMC-BAC-2; first compound 1.265 µM) of 0.564, a relative viability (EMC-BAC-2; first compound 4 µM) of 0.632 and a relative viability (HARA; first compound 0.04 µM) of 1.01. The relative viability (HARA; first compound 0.1265 µM) was 0.709, the relative viability (HARA; first compound 0.4 µM) was 0.91 and the relative viability (HARA; first compound 1.265 µM) was 0.394. For the same compound, the relative viability (HARA; first compound 4 µM) was 0.465, the relative viability (HCC-44; first compound 0.04 µM) was 1.04 and the relative viability (HCC-44; first compound 0.1265 µM) was 1.03. It also gave a relative viability (HCC-44; first compound 0.4 µM) of 1.1, a relative viability (HCC-44; first compound 1.265 µM) of 1.07 and a relative viability (HCC-44; first compound 4 µM) of 1.01. For the same compound, the relative viability (LCLC-103H; first compound 0.04 µM) was 0.693, the relative viability (LCLC-103H; first compound 0.1265 µM) was 0.649 and the relative viability (LCLC-103H; first compound 0.4 µM) was 0.52. It also gave a relative viability (LCLC-103H; first compound 1.265 µM) of 0.69, a relative viability (LCLC-103H; first compound 4 µM) of 0.732 and a relative viability (LOU-NH91; first compound 0.04 µM) of 0.74. It also gave a relative viability (LOU-NH91; first compound 0.1265 µM) of 0.787, a relative viability (LOU-NH91; first compound 0.4 µM) of 0.602 and a relative viability (LOU-NH91; first compound 1.265 µM) of 0.567. The relative viability (LOU-NH91; first compound 4 µM) was 0.579, the relative viability (NCI-H1395; first compound 0.04 µM) was 1 and the relative viability (NCI-H1395; first compound 0.1265 µM) was 1.21. It also gave a relative viability (NCI-H1395; first compound 0.4 µM) of 1.08, a relative viability (NCI-H1395; first compound 1.265 µM) of 0.773 and a relative viability (NCI-H1395; first compound 4 µM) of 1.13. For the same compound, the relative viability (NCI-H1666; first compound 0.04 µM) was 0.942, the relative viability (NCI-H1666; first compound 0.1265 µM) was 0.918 and the relative viability (NCI-H1666; first compound 0.4 µM) was 0.853. The relative viability (NCI-H1666; first compound 1.265 µM) was 0.775, the relative viability (NCI-H1666; first compound 4 µM) was 0.621 and the relative viability (NCI-H1993; first compound 0.04 µM) was 0.413. It also gave a relative viability (NCI-H1993; first compound 0.1265 µM) of 0.458, a relative viability (NCI-H1993; first compound 0.4 µM) of 0.447 and a relative viability (NCI-H1993; first compound 4 µM) of 0.45. The relative viability (NCI-H2009; first compound 0.04 µM) was 0.272, the relative viability (NCI-H2009; first compound 0.1265 µM) was 0.271 and the relative viability (NCI-H2009; first compound 0.4 µM) was 0.264. It also gave a relative viability (NCI-H2009; first compound 1.265 µM) of 0.211, a relative viability (NCI-H2009; first compound 4 µM) of 0.295 and a relative viability (NCI-H2023; first compound 0.04 µM) of 0.563. The relative viability (NCI-H2023; first compound 0.1265 µM) was 0.535, the relative viability (NCI-H2023; first compound 0.4 µM) was 0.475 and the relative viability (NCI-H2023; first compound 1.265 µM) was 0.364. For the same compound, the relative viability (NCI-H2023; first compound 4 µM) was 0.2, the relative viability (NCI-H2087; first compound 0.04 µM) was 0.238 and the relative viability (NCI-H2087; first compound 0.1265 µM) was 0.218. The relative viability (NCI-H2087; first compound 0.4 µM) was 0.194, the relative viability (NCI-H2087; first compound 1.265 µM) was 0.15 and the relative viability (NCI-H2087; first compound 4 µM) was 0.164. The relative viability (NCI-H2126; first compound 0.04 µM) was 0.592, the relative viability (NCI-H2126; first compound 0.1265 µM) was 0.564 and the relative viability (NCI-H2126; first compound 0.4 µM) was 0.557. For the same compound, the relative viability (NCI-H2126; first compound 1.265 µM) was 0.543, the relative viability (NCI-H2126; first compound 4 µM) was 0.558 and the relative viability (NCI-H2347; first compound 0.04 µM) was 0.324. The relative viability (NCI-H2347; first compound 0.1265 µM) was 0.284, the relative viability (NCI-H2347; first compound 0.4 µM) was 0.227 and the relative viability (NCI-H2347; first compound 1.265 µM) was 0.229. For the same compound, the relative viability (NCI-H2347; first compound 4 µM) was 0.247, the relative viability (NCI-H23; first compound 0.04 µM) was 0.383 and the relative viability (NCI-H23; first compound 0.1265 µM) was 0.336. For the same compound, the relative viability (NCI-H23; first compound 0.4 µM) was 0.366, the relative viability (NCI-H23; first compound 1.265 µM) was 0.28 and the relative viability (NCI-H23; first compound 4 µM) was 0.247. The relative viability (NCI-H3122; first compound 0.04 µM) was 0.223, the relative viability (NCI-H3122; first compound 0.1265 µM) was 0.169 and the relative viability (NCI-H3122; first compound 0.4 µM) was 0.154. For the same compound, the relative viability (NCI-H3122; first compound 1.265 µM) was 0.132, the relative viability (NCI-H3122; first compound 4 µM) was 0.0965 and the relative viability (NCI-H441; first compound 0.04 µM) was 0.543. For the same compound, the relative viability (NCI-H441; first compound 0.1265 µM) was 0.428, the relative viability (NCI-H441; first compound 0.4 µM) was 0.455 and the relative viability (NCI-H441; first compound 1.265 µM) was 0.345. It also gave a relative viability (NCI-H441; first compound 4 µM) of 0.336, a relative viability (NCI-H522; first compound 0.04 µM) of 0.683 and a relative viability (NCI-H522; first compound 0.1265 µM) of 0.784. It also gave a relative viability (NCI-H522; first compound 0.4 µM) of 0.695, a relative viability (NCI-H522; first compound 1.265 µM) of 0.705 and a relative viability (NCI-H522; first compound 4 µM) of 0.636. The relative viability (NCI-H596; first compound 0.04 µM) was 0.901, the relative viability (NCI-H596; first compound 0.1265 µM) was 0.794 and the relative viability (NCI-H596; first compound 0.4 µM) was 0.75. It also gave a relative viability (NCI-H596; first compound 1.265 µM) of 0.808, a relative viability (NCI-H596; first compound 4 µM) of 0.778 and a relative viability (NCI-H647; first compound 0.04 µM) of 0.436. For the same compound, the relative viability (NCI-H647; first compound 0.1265 µM) was 0.444, the relative viability (NCI-H647; first compound 1.265 µM) was 0.488 and the relative viability (NCI-H647; first compound 4 µM) was 0.527. For the same compound, the relative viability (NCI-H650; first compound 0.04 µM) was 1.09, the relative viability (NCI-H650; first compound 0.1265 µM) was 1.11 and the relative viability (NCI-H650; first compound 0.4 µM) was 0.987. The relative viability (NCI-H650; first compound 1.265 µM) was 0.696, the relative viability (NCI-H650; first compound 4 µM) was 0.786 and the relative viability (NCI-H727; first compound 0.04 µM) was 0.379. The relative viability (NCI-H727; first compound 0.1265 µM) was 0.394, the relative viability (NCI-H727; first compound 0.4 µM) was 0.399 and the relative viability (NCI-H727; first compound 4 µM) was 0.364. For the same compound, the relative viability (NCI-H838; first compound 0.04 µM) was 0.518, the relative viability (NCI-H838; first compound 0.1265 µM) was 0.439 and the relative viability (NCI-H838; first compound 0.4 µM) was 0.435. It also gave a relative viability (NCI-H838; first compound 1.265 µM) of 0.409 and a relative viability (NCI-H838; first compound 4 µM) of 0.354.

Reference: the supplement of paper PMC10307832
